Test results reported in the METLIN SMRT retention time set (Domingo-Almenara et al. 2019).

Assay: gradient 5% acetonitrile 3 min, to 50% in 2 min, to 85% in 15 min, held 3 min, 100 µL/min
Conditions: column: Zorbax Extend-C18 2.1 x 50 mm; eluents: water / acetonitrile, 0.1% formic acid
How it was run: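 The mobile phases were water and acetonitrile, each with 0.1% formic acid, pumped at 100 μL/min through a Zorbax Extend-C18 column (2.1 × 50 mm, 1.8 μm). Pure standards were injected as mixtures of ~100 molecules and detected by a quadrupole time-of-flight mass spectrometer in positive and negative ionization mode. Retention time came from computationally picked adduct peaks, each inspected by hand.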

| RP-LC retention time [s] | SMILES |
| --- | --- |
| 672 | CCOc1nccnc1N1CCC(N(C)C(=O)Cc2c(C)noc2C)C1 (stereo unspecified) |
| 829 | O=S(=O)(c1cccn2c(SCc3ccc(F)cc3)nnc12)N1CCCC1 |
| 605 | Cc1ccccc1-c1nc2cnccn2c1NCCC(=O)NC(C)C |
| 570 | CCn1cnc(S(=O)(=O)N2CCC(C(=O)Nc3ncccc3C)CC2)c1 |
| 600 | N#Cc1ccc(CN2C[C@@H](CO)[C@H](c3nc(C4CC4)no3)C2)cc1 |
| 774 | COC(=O)c1c(C)[nH]c(C(=O)N2CCC(CC(=O)NCc3ccc(SC)cc3)CC2)c1C |
| 959 | Cc1noc(C)c1-c1ccc(S(=O)(=O)NC2CCCCC2)cc1 |
| 591 | O=C(NCc1ccc(F)cc1)N1CCC(Nc2cccnc2)C1 (stereo unspecified) |
| 915 | CC(C)c1noc(-c2ccc(-n3cnc(C(=O)NC4CCCC4)c3)nc2)n1 |
| 1060 | CCNc1nc(-c2ccc(C3CCCCC3)cc2)cs1 |
| 589 | CCCCN(CC(=O)N1CCNCC1)C(=O)c1ccc(Br)cc1 |
| 881 | COc1ccc(S(=O)(=O)N2C[C@H]3CN(C(=O)Nc4cccc(OC)c4)C[C@@H](C2)O3)cc1 |
| 648 | Cc1ccccc1Cn1cc(-c2ccncc2)cc1C(=O)NC1CC1 |
| 758 | CN1C(=O)C(CC(=O)Nc2ccccc2)=C2CCCCC21 (stereo unspecified) |
| 663 | O=C(CN1CCCc2nc(C3CC3)ncc2C1=O)NCc1ccco1 |
| 730 | CCCn1cc(C(=O)NCCN(C)C)c(S(=O)(=O)N2CCN(c3ccc(Cl)cc3)CC2)n1 |
| 752 | COCCNC(=O)c1ccc2c(c1)CCCN2C(=O)c1ccc(Cl)cc1 |
| 666 | CCN1CCN(C(=O)C2CCN(c3nc4ccc(-c5ccsc5)nc4s3)CC2)CC1 |
| 802 | CC1CCN(C(=O)C2CCN(S(C)(=O)=O)c3ccccc3O2)CC1 (stereo unspecified) |
| 672 | COc1cccc(-c2nc3cnccn3c2NCCC(=O)Nc2ccc3c(c2)OCCO3)c1 |
| 683 | COc1ccc(C(=O)N2CCC3(C2)C(=O)Nc2ccccc23)cc1 (stereo unspecified) |
| 882 | Cn1c(=O)c(-c2ccc(C(=O)NC3CCCCC3)cc2)nc2cccnc21 |

| RP-LC retention time [s] | SMILES |
| --- | --- |
| 861 | Cn1nc(-c2nc(C3CC3)no2)c2c1CCN(S(=O)(=O)c1cccs1)C2 |
| 803 | O=C(Nc1cc(-c2cccs2)no1)C1CC1 |
| 633 | COc1cc(OC)c(NC(=O)C2CCCN(C(=O)c3cc(-c4ccncc4)n[nH]3)C2)cc1Cl (stereo unspecified) |
| 891 | Cc1oc2ccn(Cc3cccc(F)c3)c(=O)c2c1C(=O)NCC1CCCO1 (stereo unspecified) |
| 680 | COc1ccc(-c2nc3cccnc3n2C2CCN(C(=O)NCC(C)C)C2)cc1 (stereo unspecified) |
| 869 | COc1ccc(-c2ccnc3nc(C4CCC4)nn23)c(F)c1 |
| 611 | Cc1cccc2c(C(=O)NC(C)C)cc(N3CCCC3)nc12 |
| 655 | O=c1ccn2c(n1)SC(c1ccccc1)C2 (stereo unspecified) |
| 719 | CCC(=O)N1CCC(COc2ccc(C(=O)NC(C)C)cc2)CC1 |
| 614 | CC(C)CCNC(=O)N1CCN(Cc2nc3cc(C(=O)N(C)C)ccc3o2)CC1 |
| 845 | Cc1oc2ncnc(N3CCCCC3)c2c1C(=O)NCCN(Cc1ccco1)C1CCCC1 |
| 832 | CCCC(=O)N1CCc2cn(C)c3cccc(c23)C1 |
| 727 | CCCNC(=O)C1CCCN(c2nc3ncn(CC(=O)Nc4c(C)cccc4CC)c(=O)c3s2)C1 (stereo unspecified) |
| 744 | O=C(CN1CCN(Cc2ccc(F)cc2)C(=O)C1=O)N1CCN(c2ccc(F)cc2)CC1 |
| 763 | CCC(C(=O)Nc1ccc2c(c1)OCCO2)n1cnc2nc3c(cc2c1=O)CCCC3 (stereo unspecified) |
| 711 | Cc1ccc(NC(=O)Cn2cnc3nc(N4CCCC(C(=O)NC(C)C)C4)sc3c2=O)cc1 (stereo unspecified) |
| 907 | CCCN1C(=O)CCc2cc(NS(=O)(=O)c3ccc(CC)cc3)ccc21 |
| 622 | Cc1ccc(C)c(CNC(=O)c2cn3c(n2)CCCC3)c1 |
| 839 | CC(C)c1noc(-c2ccc(-n3cnc(C(=O)NCC4CC4)c3)nc2)n1 |
| 938 | CCOc1ccccc1-n1ccn(Cc2nc(-c3ccc(Cl)cc3)no2)c(=O)c1=O |
| 577 | Cc1ccc(C(=O)N2CC[C@H](CO)[C@H](N(C)C)C2)s1 |
| 618 | O=C(c1ccoc1)N1CCC(F)(C(=O)NCC2CC2)CC1 |

Second part, the molecule before the results:

| SMILES | RP-LC retention time [s] |
| --- | --- |
| O=C1NCCCn2cc(S(=O)(=O)NCc3ccc(F)cc3Cl)cc21 | 686 |
| Cc1ccc(NC(=O)N2CCc3nc[nH]c3C2)cc1Cl | 612 |
| COC(=O)c1c(NC(=O)CSc2nnnn2-c2ccccc2OC)sc2c1CCC2 | 1060 |
| CC(C)NS(=O)(=O)c1ccc(NC(=O)Cn2cncn2)cc1 | 602 |
| O=C(NCC(c1cccnc1)N1CCOCC1)c1ccccc1 (stereo unspecified) | 522 |
| COc1ccc(N2CCN(C(=O)CCC(=O)N3CCCn4nc(-c5cccn5C)cc43)CC2)cc1 | 711 |
| COc1ccccc1NC(=O)CSc1ncc(S(=O)(=O)c2ccccc2)c(N)n1 | 790 |
| O=C(c1ccc2[nH]ccc2c1)N1CCN(c2cc(-c3ccccc3)[nH]n2)CC1 | 728 |
| O=C(NCC(O)c1ccc(C(F)(F)F)cc1)C(c1ccccc1)c1ccccc1 (stereo unspecified) | 938 |
| CC(C)n1c(N2CCN(C(=O)c3ccc4nccnc4c3)CC2)cc(=O)n(C(C)C)c1=O | 701 |
| CCCN1C(=O)CCc2cc(NS(=O)(=O)c3cccs3)ccc21 | 797 |
| Cc1ccc(OCC(=O)Nc2cc3[nH]c(=O)[nH]c3cc2C)cc1 | 698 |
| Cc1ccc(Nc2nc(-c3ccncc3)nc3ccccc23)cc1 | 797 |
| COc1ccccc1OCCNC(=O)C1CC(=O)N(c2n[nH]c3ccccc23)C1 (stereo unspecified) | 682 |
| COCCNS(=O)(=O)c1ccc(Cl)c(-c2nnc(-c3ccccc3)o2)c1 | 870 |
| CN1CCN(CCNC(=O)C2CCc3sc(C(=O)N4CCCC4)cc3C2)CC1 (stereo unspecified) | 569 |
| O=C1CC(C(F)(F)F)c2c(c(C(=O)O)cn2-c2cccc(Cl)c2)N1 (stereo unspecified) | 786 |
| CS(=O)(=O)N1CCCc2ccc(NC(=O)c3ccc4nsnc4c3)cc21 | 786 |
| C[C@H]1C2Cc3ccc(O)cc3[C@@]1(C)CCN2CC1CC1 | 669 |
| COc1ccc(-c2nc(CN3C(=O)C(O)(c4cccc(F)c4)c4ccccc43)c(C)o2)cc1 (stereo unspecified) | 1040 |
| CSc1ncccc1C(=O)N(Cc1cccs1)Cc1cccn1C | 904 |
| Cn1cc(S(=O)(=O)NCc2ccc(F)cc2Cl)c2cccnc21 | 821 |
| CCCS(=O)(=O)c1nc2ccc(NS(=O)(=O)c3ccc(F)cc3F)cc2s1 | 934 |
| Cc1ccc(N2C(=O)CN(S(C)(=O)=O)CC2(C)C(=O)NC2CCCCCCC2)cc1Cl (stereo unspecified) | 980 |

| SMILES | RP-LC retention time [s] |
| --- | --- |
| Cn1cc(-c2nc(C(=O)Nc3ccc(Cl)cc3F)cs2)c2cccnc21 | 1260 |
| CCOC(=O)CC1C(=O)NCCN1C(=O)COc1ccc(Br)cc1C (stereo unspecified) | 797 |
| COc1cc(-c2c(NC(=O)c3ccco3)sc3ccccc3c2=O)cc(OC)c1OC | 828 |
| CCc1cc(=O)n(CC(=O)Nc2cccc(C)c2C)c(N)n1 | 608 |
| COc1cc(NC(=O)N2CC(C)Sc3ccccc32)cc(OC)c1OC (stereo unspecified) | 961 |
| COc1ccc(N2Cc3cccc(C(=O)O)c3C2=O)cc1 | 816 |
| CCC(C)NC(=O)C1CCC(=O)N(c2ccc(OC)cc2)C1c1ccc(OC)c(OC)c1 (stereo unspecified) | 638 |
| Cc1cc2c(c(=O)n(-c3ccc(F)cc3)c(=O)n2CC(=O)Nc2ccc(Br)cc2)n1C | 932 |
| Cc1cc(Cl)ccc1OCC(=O)Nc1ccc2c(c1)Sc1ncccc1C(=O)N2C | 911 |
| CCC(O)c1nc2ccccc2n1CC(=O)N(C)c1ccccc1 (stereo unspecified) | 624 |
| COc1ccc(-c2noc(Cc3nc(-c4cc(C)c(C)cc4C)cs3)n2)cc1 | 1340 |
| COc1ccc(-n2c(=O)n(C)c(=O)c3cc(C(=O)Nc4cc(C)ccc4F)cnc32)cc1 | 912 |
| CCOc1ccc(NC(=O)Nc2cc(C(C)C)ccc2C)cc1 | 1160 |
| Cc1cc(C(=O)NCC2Cn3cccc3C(=O)N2C)nn1C (stereo unspecified) | 599 |
| CCn1cc(-c2nc(C(=O)Nc3ccc(F)cc3Cl)cs2)c2cccnc21 | 1350 |
| CN1C(=O)C2CCCCN2c2ccc(C(=O)NCCCN3CCCC3)cc21 (stereo unspecified) | 586 |
| CCS(=O)(=O)N1CCCN(C(=O)NC(C)(C)C)CC1 | 663 |
| Cc1cccc(NC(=O)NC2CCN(c3ccc(F)cc3)C2=O)c1 (stereo unspecified) | 830 |
| O=C(CCC[C@@H]1[C@H]2CCCN3CCC[C@@H](CN1C(=O)c1ccccc1)[C@@H]23)NC1CCS(=O)(=O)C1 (stereo partly specified) | 574 |
| O=C(Nc1ccccc1F)N1[C@H]2CC[C@@H]1c1cncnc1C2 | 646 |
| CCCCOc1ccc2c(=O)c3ccc(O)cc3oc2c1 | 928 |
| O=C(NCc1cccs1)c1nc2ccccn2c1-c1ccccc1 | 853 |
| CCN(CC)S(=O)(=O)c1ccc2c(c1)CC(C(=O)NCCN1CCCCCC1)N2C(C)=O (stereo unspecified) | 631 |
